{
  "source": "ChEMBL document CHEMBL2321869",
  "about": "“Ion channels as therapeutic targets: a drug discovery perspective” (J Med Chem, 2013)",
  "key": {"[1]": {"molecular_target": "P2X2/P2X3 heterotrimeric receptor (Homo sapiens, UniProt P56373+Q9UBL9)", "sequence (Q9UBL9 whole entry)": "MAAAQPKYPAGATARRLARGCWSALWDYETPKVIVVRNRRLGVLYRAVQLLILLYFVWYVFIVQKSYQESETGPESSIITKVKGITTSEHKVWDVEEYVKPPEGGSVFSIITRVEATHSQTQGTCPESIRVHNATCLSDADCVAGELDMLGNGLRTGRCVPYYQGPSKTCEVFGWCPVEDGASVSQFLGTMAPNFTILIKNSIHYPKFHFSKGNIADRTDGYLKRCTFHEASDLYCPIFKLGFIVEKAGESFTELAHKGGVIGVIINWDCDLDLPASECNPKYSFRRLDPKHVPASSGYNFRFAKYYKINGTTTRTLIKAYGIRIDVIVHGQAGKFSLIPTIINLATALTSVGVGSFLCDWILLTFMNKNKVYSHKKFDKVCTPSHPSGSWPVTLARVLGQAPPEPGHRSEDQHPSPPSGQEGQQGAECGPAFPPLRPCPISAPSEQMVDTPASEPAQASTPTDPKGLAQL", "sequence (P56373 whole entry)": "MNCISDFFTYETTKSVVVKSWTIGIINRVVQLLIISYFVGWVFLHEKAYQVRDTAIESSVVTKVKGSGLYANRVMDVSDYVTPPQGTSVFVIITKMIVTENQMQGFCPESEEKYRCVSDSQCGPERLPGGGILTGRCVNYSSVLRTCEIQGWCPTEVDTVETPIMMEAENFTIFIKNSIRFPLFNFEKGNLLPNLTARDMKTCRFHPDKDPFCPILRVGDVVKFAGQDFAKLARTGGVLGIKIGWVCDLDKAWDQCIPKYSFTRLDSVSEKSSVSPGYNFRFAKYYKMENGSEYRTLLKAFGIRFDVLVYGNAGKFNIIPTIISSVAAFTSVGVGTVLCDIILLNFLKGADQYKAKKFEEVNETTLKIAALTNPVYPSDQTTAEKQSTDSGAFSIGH", "experiment": "Antagonist activity at human P2X2/3 receptor", "format": "protein-complex assay"}, "[2]": {"molecular_target": "Potassium channel subfamily K member 3 (Homo sapiens, UniProt O14649)", "sequence (O14649 whole entry)": "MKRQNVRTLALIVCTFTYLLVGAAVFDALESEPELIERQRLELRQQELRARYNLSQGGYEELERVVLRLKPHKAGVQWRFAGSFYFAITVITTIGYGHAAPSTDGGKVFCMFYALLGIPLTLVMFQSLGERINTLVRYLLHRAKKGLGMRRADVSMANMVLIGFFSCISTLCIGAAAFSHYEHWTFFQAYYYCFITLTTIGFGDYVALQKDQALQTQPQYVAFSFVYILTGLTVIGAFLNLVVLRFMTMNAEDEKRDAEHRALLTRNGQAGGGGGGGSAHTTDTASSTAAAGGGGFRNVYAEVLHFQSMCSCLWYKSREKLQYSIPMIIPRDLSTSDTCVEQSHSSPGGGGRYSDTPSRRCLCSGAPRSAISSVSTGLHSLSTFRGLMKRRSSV", "experiment": "Inhibition of TASK-1 (unknown origin)"}, "[3]": {"molecular_target": "Potassium channel subfamily K member 2 (Homo sapiens, UniProt O95069)", "sequence (O95069 whole entry)": "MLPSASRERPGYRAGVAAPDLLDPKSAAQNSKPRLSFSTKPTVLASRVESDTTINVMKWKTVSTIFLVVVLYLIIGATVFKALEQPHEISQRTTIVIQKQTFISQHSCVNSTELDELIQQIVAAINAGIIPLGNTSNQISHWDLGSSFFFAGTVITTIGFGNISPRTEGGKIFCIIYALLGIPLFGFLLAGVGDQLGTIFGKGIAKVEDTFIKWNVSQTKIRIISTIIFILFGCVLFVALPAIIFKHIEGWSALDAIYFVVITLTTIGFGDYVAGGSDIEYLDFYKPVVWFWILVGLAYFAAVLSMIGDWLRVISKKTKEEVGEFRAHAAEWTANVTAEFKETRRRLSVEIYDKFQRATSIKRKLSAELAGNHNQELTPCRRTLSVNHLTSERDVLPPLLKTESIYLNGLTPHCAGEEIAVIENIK", "experiment": "Inhibition of human TREK-1 expressed in HEK293 cells by patch-clamp technique", "format": "cell-based"}, "[4]": {"molecular_target": "Voltage-gated potassium channel KCNC1 (Rattus norvegicus, UniProt P25122)", "sequence (P25122 whole entry)": "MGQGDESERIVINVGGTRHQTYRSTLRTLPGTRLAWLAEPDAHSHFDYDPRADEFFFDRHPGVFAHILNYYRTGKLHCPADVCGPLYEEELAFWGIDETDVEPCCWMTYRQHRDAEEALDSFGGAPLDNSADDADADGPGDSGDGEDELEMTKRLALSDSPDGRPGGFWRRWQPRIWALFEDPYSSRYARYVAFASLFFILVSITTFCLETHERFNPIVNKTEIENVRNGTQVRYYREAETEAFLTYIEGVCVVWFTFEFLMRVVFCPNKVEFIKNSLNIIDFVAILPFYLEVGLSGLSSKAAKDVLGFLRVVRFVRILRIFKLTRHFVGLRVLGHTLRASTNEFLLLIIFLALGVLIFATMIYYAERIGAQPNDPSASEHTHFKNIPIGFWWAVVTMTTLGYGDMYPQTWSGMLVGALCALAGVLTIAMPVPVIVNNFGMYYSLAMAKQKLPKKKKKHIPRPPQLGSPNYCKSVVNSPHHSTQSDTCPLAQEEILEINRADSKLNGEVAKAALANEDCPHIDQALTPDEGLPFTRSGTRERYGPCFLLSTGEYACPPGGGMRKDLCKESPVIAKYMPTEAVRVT", "experiment": "Inhibition of rat voltage-gated K channel 3.1 expressed in CHO cells by patch clamp assay", "format": "cell-based"}, "[5]": {"molecular_target": "Sodium channel protein type 10 subunit alpha (Homo sapiens, UniProt Q9Y5Y9)", "experiment": "Inhibition of voltage-gated Na channel 1.8 (unknown origin)"}, "[6]": {"molecular_target": "Acid-sensing ion channel 3 (Rattus norvegicus, UniProt O35240)", "sequence (O35240 whole entry)": "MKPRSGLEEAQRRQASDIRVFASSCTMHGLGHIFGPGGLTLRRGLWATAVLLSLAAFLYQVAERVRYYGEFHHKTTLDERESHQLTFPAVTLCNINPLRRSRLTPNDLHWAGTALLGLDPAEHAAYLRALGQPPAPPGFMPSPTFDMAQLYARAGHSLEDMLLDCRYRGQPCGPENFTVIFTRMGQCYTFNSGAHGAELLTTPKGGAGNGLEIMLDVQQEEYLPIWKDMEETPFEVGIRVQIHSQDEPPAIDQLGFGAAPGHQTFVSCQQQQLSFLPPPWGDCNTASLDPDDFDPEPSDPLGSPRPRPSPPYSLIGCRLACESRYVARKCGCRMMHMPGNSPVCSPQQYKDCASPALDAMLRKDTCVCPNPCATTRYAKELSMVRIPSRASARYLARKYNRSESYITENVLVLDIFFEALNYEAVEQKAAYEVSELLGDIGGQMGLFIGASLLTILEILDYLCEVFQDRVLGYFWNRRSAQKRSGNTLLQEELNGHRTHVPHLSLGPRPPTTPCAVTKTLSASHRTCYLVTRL", "experiment": "Inhibition of ASIC3 in rat DRG neurons"}, "[7]": {"experiment": "Agonist activity at AMPA receptor in rat DRG neurons by patch clamp technique", "settings": "DRG neuron"}, "Rattus norvegicus [8]": {"organism": "Rattus norvegicus", "experiment": "Selectivity ratio of EC50 for AMPA receptor in rat hippocampal neurons to EC50 for AMPA receptor in rat DRG neurons", "format": "tissue-based", "settings": "Hippocampus"}, "[9]": {"molecular_target": "Glutamate receptor ionotropic, kainate 1 (Homo sapiens, UniProt P39086)", "sequence (P39086 whole entry)": "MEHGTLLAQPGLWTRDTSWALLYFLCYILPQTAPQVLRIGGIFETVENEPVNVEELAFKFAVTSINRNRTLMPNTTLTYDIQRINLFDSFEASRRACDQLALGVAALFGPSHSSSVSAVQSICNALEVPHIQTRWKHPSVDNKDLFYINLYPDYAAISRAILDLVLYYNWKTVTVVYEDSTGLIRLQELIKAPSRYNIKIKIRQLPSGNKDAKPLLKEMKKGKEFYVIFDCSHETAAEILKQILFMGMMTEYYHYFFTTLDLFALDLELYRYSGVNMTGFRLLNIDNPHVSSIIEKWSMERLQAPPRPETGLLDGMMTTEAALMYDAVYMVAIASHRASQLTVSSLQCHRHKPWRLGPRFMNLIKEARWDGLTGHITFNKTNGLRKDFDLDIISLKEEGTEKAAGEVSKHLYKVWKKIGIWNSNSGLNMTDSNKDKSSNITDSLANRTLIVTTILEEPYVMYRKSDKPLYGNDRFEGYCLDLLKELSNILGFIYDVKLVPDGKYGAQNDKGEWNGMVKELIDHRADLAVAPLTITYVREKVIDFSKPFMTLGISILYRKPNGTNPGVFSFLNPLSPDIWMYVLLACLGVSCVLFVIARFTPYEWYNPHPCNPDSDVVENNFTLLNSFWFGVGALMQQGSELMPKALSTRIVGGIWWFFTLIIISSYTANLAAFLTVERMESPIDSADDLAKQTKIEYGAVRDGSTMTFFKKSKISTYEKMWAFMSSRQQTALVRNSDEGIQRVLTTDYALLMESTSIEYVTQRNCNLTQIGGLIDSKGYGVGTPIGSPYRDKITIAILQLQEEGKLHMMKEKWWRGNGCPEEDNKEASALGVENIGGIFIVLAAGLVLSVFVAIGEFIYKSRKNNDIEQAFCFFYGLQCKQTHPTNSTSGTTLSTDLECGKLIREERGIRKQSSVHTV", "experiment": "Agonist activity at GluK1 (unknown origin)"}, "Homo sapiens [10]": {"organism": "Homo sapiens", "experiment": "Selectivity ratio of IC50 for voltage-gated K channel (unknown origin) to human voltage-gated K channel 2.1"}, "[11]": {"molecular_target": "Potassium voltage-gated channel subfamily B member 2 (Homo sapiens, UniProt Q92953)", "sequence (Q92953 whole entry)": "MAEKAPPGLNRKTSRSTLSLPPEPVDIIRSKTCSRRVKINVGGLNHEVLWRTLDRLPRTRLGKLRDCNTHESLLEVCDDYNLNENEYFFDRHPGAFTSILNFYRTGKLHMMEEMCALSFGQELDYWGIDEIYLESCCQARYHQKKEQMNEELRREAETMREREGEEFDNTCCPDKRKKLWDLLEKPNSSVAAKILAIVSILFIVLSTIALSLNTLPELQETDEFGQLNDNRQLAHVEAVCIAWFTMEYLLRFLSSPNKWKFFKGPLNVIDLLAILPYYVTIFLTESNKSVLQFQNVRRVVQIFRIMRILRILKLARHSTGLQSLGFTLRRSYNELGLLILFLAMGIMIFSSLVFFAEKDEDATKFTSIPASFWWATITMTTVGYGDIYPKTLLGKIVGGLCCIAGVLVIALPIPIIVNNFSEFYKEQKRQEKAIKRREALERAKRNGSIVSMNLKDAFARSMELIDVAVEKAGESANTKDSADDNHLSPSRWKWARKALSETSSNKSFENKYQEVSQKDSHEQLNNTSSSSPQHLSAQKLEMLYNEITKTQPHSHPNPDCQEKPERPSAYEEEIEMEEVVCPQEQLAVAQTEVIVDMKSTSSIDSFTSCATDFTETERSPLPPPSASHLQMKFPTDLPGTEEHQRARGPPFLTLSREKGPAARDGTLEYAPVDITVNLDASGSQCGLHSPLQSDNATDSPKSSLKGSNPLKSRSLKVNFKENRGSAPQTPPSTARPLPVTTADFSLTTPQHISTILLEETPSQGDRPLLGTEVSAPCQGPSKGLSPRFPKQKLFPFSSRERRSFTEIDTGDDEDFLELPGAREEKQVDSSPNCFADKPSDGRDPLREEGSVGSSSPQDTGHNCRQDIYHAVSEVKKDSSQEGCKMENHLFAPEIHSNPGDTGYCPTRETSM", "experiment": "Inhibition of voltage-gated K channel 2.2 (unknown origin) by automated patch clamp assay"}, "Homo sapiens [12]": {"organism": "Homo sapiens", "experiment": "Selectivity ratio of IC50 for voltage-gated Na channel (unknown origin) to IC50 for voltage-gated K channel 2.2 (unknown origin)"}, "Homo sapiens [13]": {"organism": "Homo sapiens", "experiment": "Selectivity ratio of IC50 for voltage-gated Na channel (unknown origin) to IC50 for human voltage-gated K channel 2.1"}, "Homo sapiens [14]": {"organism": "Homo sapiens", "experiment": "Selectivity ratio of IC50 for voltage-gated K channel (unknown origin) to voltage-gated K channel 2.2 (unknown origin)"}, "[15]": {"molecular_target": "Neuronal acetylcholine receptor; alpha4/beta2 (Homo sapiens, UniProt P17787+P43681)", "experiment": "Agonist activity at human alpha4beta2 nAChR expressed in HEK293 cells incubated for 5 mins measured every second for 1 mins followed by every 5 secs for 4 mins by calcium flux assay", "format": "cell-based"}, "[16]": {"molecular_target": "Small conductance calcium-activated potassium channel protein 3 (Homo sapiens, UniProt Q9UGI6)", "experiment": "Inhibition of human Kca 2.3 expressed in HEK293 cells by patch clamp technique", "format": "cell-based"}, "[17]": {"experiment": "Agonist activity at AMPA receptor in rat hippocampal neurons by patch clamp technique", "format": "tissue-based", "settings": "Hippocampus"}, "Rattus norvegicus [18]": {"organism": "Rattus norvegicus", "experiment": "Selectivity ratio of EC50 for AMPA receptor in rat DRG neurons to EC50 for AMPA receptor in rat hippocampal neurons", "format": "tissue-based", "settings": "Hippocampus"}},
  "data": [
    {"compound": "Cc1ccc(-c2cc(C(=O)N[C@H](C)c3ccc(F)cn3)cc(-c3ncccc3F)c2)nc1", "values": [
      {"measurement": "IC50", "setting": "[1]", "value": 8000, "unit": "nM"}
    ]},
    {"compound": "CCCC(=O)C1CCN(c2ncnc3c2CN(C(=O)c2ccc(-c4ccccc4)cc2)CC3)CC1", "values": [
      {"measurement": "IC50", "setting": "[2]", "value": 300, "unit": "nM"}
    ]},
    {"compound": "CCN(CC)CC(=O)Nc1c(C)cccc1C", "note": "[LIDOCAINE]", "values": [
      {"measurement": "IC50", "setting": "[3]", "value": 180000, "unit": "nM"}
    ]},
    {"compound": "NCCC(Oc1ccc(C(F)(F)F)cc1)c1ccccc1", "note": "(stereo not given) [NORFLUOXETINE]", "values": [
      {"measurement": "IC50", "setting": "[4]", "value": 800, "unit": "nM"}
    ]},
    {"compound": "O=C(NCc1cccnc1N1CCOCC1)c1cncc(-c2ccc(OC(F)(F)F)cc2)n1", "values": [
      {"measurement": "IC50", "setting": "[5]", "value": 30, "unit": "nM"}
    ]},
    {"compound": "CC(C)C1c2cc(C3CC3c3ccc4cc(C(=N)N)ccc4c3)ccc2CCN1C", "note": "(stereo not given)", "values": [
      {"measurement": "IC50", "setting": "[6]", "value": 9500, "unit": "nM"}
    ]},
    {"compound": "CCc1nnnn1-c1cc(C(=O)NC(C)c2cnccn2)cc(-c2ccc(C)cc2)c1", "note": "(stereo not given)", "values": [
      {"measurement": "IC50", "setting": "[1]", "value": 8000, "unit": "nM"}
    ]},
    {"compound": "N[C@@H](Cn1cc(I)c(=O)[nH]c1=O)C(=O)O", "values": [
      {"measurement": "EC50", "setting": "[7]", "value": 140, "unit": "nM"},
      {"measurement": "Ratio EC50", "setting": "Rattus norvegicus [8]", "value": 137}
    ]},
    {"compound": "CC(C)(C)c1s[nH]c(=O)c1C[C@H](N)C(=O)O", "values": [
      {"measurement": "EC50", "setting": "[9]", "value": 100, "unit": "nM"}
    ]},
    {"compound": "CC(C)C(=O)Nc1ccc(N(C)C)c(C(=O)N[C@@H](C)c2ccccc2)c1", "values": [
      {"measurement": "Ratio IC50", "setting": "Homo sapiens [10]", "value": "> 10"},
      {"measurement": "IC50", "setting": "[11]", "value": 100, "unit": "nM"},
      {"measurement": "Ratio IC50", "setting": "Homo sapiens [12]", "value": "> 10"},
      {"measurement": "Ratio IC50", "setting": "Homo sapiens [13]", "value": "> 10"},
      {"measurement": "Ratio IC50", "setting": "Homo sapiens [14]", "value": "> 10"}
    ]},
    {"compound": "CN[C@@H](C)C/C=C/c1cncc(OC(C)C)c1", "note": "[ISPRONICLINE]", "values": [
      {"measurement": "EC50", "setting": "[15]", "value": 106, "unit": "nM"}
    ]},
    {"compound": "CNCCC(Oc1ccc(C(F)(F)F)cc1)c1ccccc1", "note": "(stereo not given) [FLUOXETINE]", "values": [
      {"measurement": "IC50", "setting": "[4]", "value": 13100, "unit": "nM"}
    ]},
    {"compound": "Cc1ccn(-c2nc(Nc3ccc(F)cc3)c3ncn(C)c3n2)n1", "values": [
      {"measurement": "EC50", "setting": "[16]", "value": 20, "unit": "nM"}
    ]},
    {"compound": "N[C@@H](Cn1cc(F)c(=O)[nH]c1=O)C(=O)O", "values": [
      {"measurement": "EC50", "setting": "[17]", "value": 1500, "unit": "nM"},
      {"measurement": "Ratio EC50", "setting": "Rattus norvegicus [18]", "value": 46}
    ]}
  ]
}
